According to paper PMC3140774 (Journal of Medicinal Chemistry, 2011):

Key:
[1] = tested on: bloodstream form T. brucei (strain 427); assay: Trypanocidal assay, growth inhibition of cultured bloodstream-form T. brucei; format: cell-based, Trypanosoma brucei; conditions: for times higher activity than C-methyl analogue 7c / times higher activity than the parent 7a: free base form
[2] = tested on: Bloodstream-form T. brucei; conditions: cited from earlier work
[3] = tested on: procyclic (insect form) T. brucei; assay: Activity against cultured procyclic; format: cell-based, Trypanosoma brucei
[4] = tested on: T. cruzi epimastigotes (CL Brener clone); assay: Growth inhibition of T. cruzi epimastigotes; format: cell-based, Trypanosoma cruzi; conditions: free base

For `C[C@@H]1NC2(C(=O)N(CC(=O)NO)C1=O)C1CC3CC(C1)CC2C3` (stereo partly shown) [7c], the “fold lower potency of hydrochloride versus free base” value ([1]; bloodstream-form T. brucei) was 3 fold and the “fold decrease in activity against T. brucei compared with 7a” value (from here on “fold decrease in activity”) ([1]; free base, bloodstream form) was 1.5 fold.

In the case of `CC(N)C12CC3CC(CC(C3)C1)C2` (stereo not shown) [rimantadine], the IC50 ([2]; read-out: IC50 bloodstream-form T. brucei, in vitro) is listed as 7 µM.

In the case of `O=C(CN1C(=O)CNC2(CCCCCC2)C1=O)NO` [10a], the “fold decrease in activity” value ([1]; free base, bloodstream form) is reported as 21 fold.

In the case of `O=C(CN1C(=O)CNC2(CCCCCCC2)C1=O)NO` [9a], the “fold decrease in activity” value ([1]; free base, bloodstream form) is reported as 3.3 fold.

In the case of `C[C@@H]1NC2(CCCCCCC2)C(=O)N(CC(=O)NO)C1=O` [9c], the “fold more potent against T. brucei than 9a” value ([1]; free base, bloodstream form) is reported as 2.4 fold.

For `O=C(CN1C(=O)C(Cc2ccccc2)NC2(C1=O)C1CC3CC(C1)CC2C3)NO` (stereo not shown) [compound 8], the “times more resistant: procyclic versus bloodstream-form T. brucei” value [3] was 10–50 fold, the “times higher activity than C-methyl analogue 7c” value ([1]; bloodstream form) was 8–20 fold and the “times higher activity than the parent 7a” value ([1]; bloodstream form) was 5.3–13 fold.

In the case of `O=C1ON=C2C3CC4CC(C3)CC12C4` [compound 3], the “potency fold greater than amantadine” value ([2]; T. brucei in vitro) is listed as “at least 45 fold”.

With `CN1CC(=O)N(CC(=O)NO)C(=O)C12CCCCCCC2` [9b] the “fold more potent against T. brucei than 9a” value ([1]; free base, bloodstream form) was 1.9 fold.

For `CN1CC(=O)N(CC(=O)NO)C(=O)C12C1CC3CC(C1)CC2C3` (stereo not shown) [7b], the “fold more potent against T. cruzi than 7a” value [4] was 1.5 fold, the “fold lower potency of hydrochloride versus free base” value ([1]; bloodstream-form T. brucei) was 1.8 fold and the “fold decrease in activity” value ([1]; free base, bloodstream form) was 2.1 fold.

In the case of `O=C1CNC2(C(=O)N1)C1CC3CC(C1)CC2C3` (stereo not shown) [6a], the “inhibition of parasite growth, preliminary screen” value ([1]; 5 μg mL^–1, bloodstream-form T. brucei) is reported as “inactive”.

In the case of `O=C(CN1C(=O)[C@H](Cc2ccccc2)NC2(CCCCCCC2)C1=O)NO` [9d], the “fold more potent against T. brucei than 9a” value ([1]; free base, bloodstream form) is reported as 10 fold and the “times more trypanocidal activity than C-methyl counterpart 9c” value ([1]; free base, bloodstream form) is reported as 4.3 fold.

For `CN1CC(=O)N(CC(=O)NO)C(=O)C12CCCCCC2` [10b], the “times more potent against T. brucei than 10a” value ([1]; free base, bloodstream form) was 6.6 fold.

In the case of `O=C(CN1C(=O)[C@H](Cc2ccccc2)NC2(C1=O)C1CC3CC(C1)CC2C3)NO` (stereo partly shown) [7d], the “times more resistant: procyclic versus bloodstream-form T. brucei” value [3] is reported as 10–50 fold, the “fold more potent against T. cruzi than 7a” value [4] is reported as 26 fold and the “fold lower potency of hydrochloride versus free base” value ([1]; bloodstream-form T. brucei) is reported as 6.2 fold. For the same compound, the “times higher activity than C-methyl analogue 7c” value ([1]; bloodstream form) was 8–20 fold, the “times higher activity than the parent 7a” value ([1]; bloodstream form) was 5.3–13 fold and the “factor less potent than 7e (R-enantiomer)” value ([1]; tested as hydrochloride salts) was 4.6 fold. For the same compound, the “factor less potent than 8 (racemic mixture)” value ([1]; tested as hydrochloride salts) was 2.3 fold.

With `O=C(CN1C(=O)[C@@H](Cc2ccccc2)NC2(C1=O)C1CC3CC(C1)CC2C3)NO` (stereo partly shown) [7e] the “times more resistant: procyclic versus bloodstream-form T. brucei” value [3] was 10–50 fold, the “times higher activity than C-methyl analogue 7c” value ([1]; bloodstream form) was 8–20 fold and the “times higher activity than the parent 7a” value ([1]; bloodstream form) was 5.3–13 fold.
